Target: T1, isoleucyl-tRNA synthetase (IleRS) (Escherichia coli, UniProt P00956)
T1 construct: gene ileS; full-length native enzyme purified from E. coli B; one-subunit enzyme
Test: global best fit of steady-state ATP-PPi exchange and tRNA aminoacylation rates
Format: biochemical
Details: AMP·E (segment 1), competitive with MgATP; pH 7.4, 30 °C, Mg-acetate, 50 mM K-acetate, no chloride; unreliable: fitted range open above (360 <)
Source text: global best fit of steady-state ATP-PPi exchange and tRNA aminoacylation rates on isoleucyl-tRNA synthetase (IleRS)

T1 sequence (P00956 2-938): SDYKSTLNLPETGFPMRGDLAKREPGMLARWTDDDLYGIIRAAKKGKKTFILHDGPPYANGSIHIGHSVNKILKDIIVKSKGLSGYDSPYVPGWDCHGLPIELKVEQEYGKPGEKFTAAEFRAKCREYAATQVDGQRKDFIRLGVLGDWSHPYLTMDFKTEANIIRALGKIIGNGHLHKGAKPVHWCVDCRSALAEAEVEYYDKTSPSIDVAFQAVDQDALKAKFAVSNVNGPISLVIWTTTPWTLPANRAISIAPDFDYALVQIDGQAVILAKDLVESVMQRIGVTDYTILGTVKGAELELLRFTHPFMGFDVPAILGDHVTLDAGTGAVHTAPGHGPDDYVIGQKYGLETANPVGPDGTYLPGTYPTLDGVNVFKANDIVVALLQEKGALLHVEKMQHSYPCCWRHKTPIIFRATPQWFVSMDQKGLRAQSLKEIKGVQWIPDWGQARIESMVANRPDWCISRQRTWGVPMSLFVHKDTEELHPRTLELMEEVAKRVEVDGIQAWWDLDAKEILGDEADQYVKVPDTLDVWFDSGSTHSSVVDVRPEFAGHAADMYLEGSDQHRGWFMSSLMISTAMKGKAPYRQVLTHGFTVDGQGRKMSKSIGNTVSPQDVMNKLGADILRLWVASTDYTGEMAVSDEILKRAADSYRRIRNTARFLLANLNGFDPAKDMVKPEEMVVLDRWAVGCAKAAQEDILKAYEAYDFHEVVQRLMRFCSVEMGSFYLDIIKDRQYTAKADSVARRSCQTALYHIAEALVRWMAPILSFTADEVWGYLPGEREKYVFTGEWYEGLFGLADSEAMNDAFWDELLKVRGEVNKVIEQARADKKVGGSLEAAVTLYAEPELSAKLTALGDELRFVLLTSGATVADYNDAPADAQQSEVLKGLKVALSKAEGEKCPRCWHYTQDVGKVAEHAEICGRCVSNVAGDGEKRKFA

Nc1ncnc2c1ncn2[C@@H]1O[C@H](COP(=O)(O)O)[C@@H](O)[C@H]1O [AMP]
Value: 705 µM
